From patent publication US7964631B2, “Fused tricyclic compounds as inhibitors of tumor necrosis factor-α” (Piramal Life Sciences Limited, priority 2004, dated 2011)

Legend:
[1] = tested on: peripheral blood mononuclear cells (PBMC); assay: Cytotoxicity of test compounds in PBMC, cell viability by MTS reagent; type: cell-based, human
Description: (§1) TNF-α production by LPS in peripheral blood mononuclear cells (PBMC) was measured according to the method described by Henry et al (J. Bioorg. Med. Chem. Lett., 8: 3335-3340, 1998). Briefly, blood was collected from healthy donors into Potassium EDTA vacutainer tubes (Vacutest Plast/Becton Dickinson). PBMC were isolated using gradient centrifugation in Ficoll-Paque solution (Pharmacia). Isolated PBMC were suspended in RPMI 1640 culture medium (Gibco BRL, Pasley, UK) containing 10% fetal bovine serum (FBS) (Hyclone, Utah, USA), 100 U/ml penicillin (Sigma Chemical Co. St Louis, Mo.) and 100 μg/ml streptomycin (Sigma Chemical Co. St Louis, Mo.). The cell concentration was adjusted to 1×10^6 cells/ml. The viability as determined by trypan blue dye exclusion was uniformly ≧98%. The cell suspension (100 μl) was added to the wells of a 96-well culture plate. Following cell plating, 79 μl of the culture medium and 1 μl of eight different concentrations of the test compounds (final concentration 0.03, 0.1, 0.3, 1, 3, 10, 30, 100 μM) dissolved in DMSO (dimethylsulfoxide, Sigma, Mo., USA) were added to the cells. The final concentration of DMSO was adjusted to 0.5%. The appropriate DMSO concentration was used as control. Rolipram (30 μM) was used as a standard compound. The plates were incubated for 30 min at 37° C. in an atmosphere of 5% CO2. Finally, 20 μl (10 μg/ml) per well of LPS, (Escherchia coli 0127:B8, Sigma Chemical Co., St. Louis, Mo.) was added, for a final concentration of 1 μg/ml. The plates were incubated at 37° C. for 4.5 h in an atmosphere of 5% CO2. To determine the cytotoxicity of the test compounds, the cell viability was assessed using MTS (3-(4,5-dimethylthiazol-2-yl)-5-(3-carboxymethoxyphenyl)-2-(4-sulfonyl)-2H-tetrazolium) reagent (Promega) after 4.5 h of incubation. Supernatants were harvested and assayed for TNF-α by ELISA as described by the manufacturer (R&D Systems, MN, BD Biosciences Pharmingen) or by cytotoxicity bioassay in L929 cells. The 50% inhibitory concentration (IC50) values were calculated by a nonlinear regression method using GraphPad software (Prism 3.03)

[2] = tested on: TNF-α; assay: LPS-induced TNF-α production in peripheral blood mononuclear cells (secondary screening); type: cell-based
Description: as §1

[3] = tested on: TNF-α; assay: Whole blood cell culture assay: LPS-induced TNF-α release (primary screening); type: cell-based, human; settings: test compound 1 μM, diluted whole blood of healthy donors, LPS 1 μg/ml, 4.5 h, vs DMSO control; for inhibition at 1 µM: Homo sapiens, Whole blood cell
Description: TNF-α production by lipopolysaccharide (LPS) in whole blood was measured according to the method described by Wilson et al (J. Immunol. Methods, 139: 233-240, 1991). Briefly, blood was collected from healthy donors into potassium EDTA vacutainer tubes (Vacutest Plast/Becton Dickinson) and diluted with RPMI 1640 culture medium (Gibco BRL, Pasley, UK) containing 100 U/ml penicillin and 100 μg/ml streptomycin, (100× solution, Sigma Chemical Co. St Louis, Mo.) with no added serum. The white blood cell count was adjusted to 1×10^6 cells/ml and 100 μl/well of the diluted blood was transferred into 96-well culture plates. Following cell plating, 79 μl of culture medium and 1 μl of the test compounds (final concentration 1 μM) dissolved in DMSO (dimethylsulfoxide, Sigma, Mo., USA) was added to the cells. The final concentration of DMSO was adjusted to 0.5%. 1 μl of vehicle (0.5% DMSO) was used as control. Rolipram (100 μM) was used as a standard compound. The plates were incubated for 30 min at 37° C. in an atmosphere of 5% CO2. Finally, 20 μl (10 μg/ml) per well of LPS (Escherchia coli 0127:B8, Sigma Chemical Co., St. Louis, Mo.) was added, for a final concentration of 1 μg/ml. Plates were incubated at 37° C. for 4.5 h in an atmosphere of 5% CO2. Supernatants were harvested and assayed for TNF-α by ELISA as described by the manufacturer (R&D Systems, MN) or by cytotoxicity bioassay in L929 cells. Percent inhibition of TNF-α release in comparison to the control was calculated.

[4] = 4.5 h, TNF-α production in PBMC, LPS 1 μg/ml, ELISA or L929 bioassay

Structure (SMILES)	% toxicity (10 μM), 5 h [1] [%]	melting point	IC50 [2, 4] [nM]	other results
COC(=O)c1cc(C)c2c(c1)[S+]([O-])Cc1cc(N3CCNCC3)cc(Cl)c1O2.Cl (stereo not drawn) [Example 15, 4-Chloro-6-methyl-10-oxo-2-piperazin-1-yl-10,11-dihydro-5-oxa-10lambda*4*-thia-dibenzo[a,d]cycloheptene-8-carboxylic acid methyl ester hydrochloride]	25	> 320 °C	550	–
COC(=O)Cc1cc(C)c2c(c1)S(=O)(=O)Cc1cc(N3CCNCC3)cc(Cl)c1O2.Cl [Example 33, (4-Chloro-6-methyl-10,10-dioxo-2-piperazine-1-yl-10,11-dihydro-5-oxa-10lambda*6*-thia-dibenzo[a,d]cyclohepten-8-yl)-acetic acid methyl ester hydrochloride]	29	280 °C (dec.)	200	inhibition at 1 µM [3]: 95%
COC(=O)c1cc(C)c2c(c1)S(=O)(=O)Cc1ccc(NCCN)c(Cl)c1O2.Cl [Example 31, 3-(2-Amino-ethylamino)-4-chloro-6-methyl-10,10-dioxo-10,11-dihydro-5-oxa-10lambda*6*-thia-dibenzo[a,d]cycloheptene-8-carboxylic acid methyl ester hydrochloride]	21	–	840	inhibition at 1 µM [3]: 66%
CCC(=O)Nc1cc(Cl)c2c(c1)CS(=O)(=O)c1cc(C(=O)OC)cc(C)c1O2 [Example 6, 4-Chloro-6-methyl-10,10-dioxo-2-propionylamino-10,11-dihydro-5-oxa-10lambda*6*-thia-dibenzo[a,d]cycloheptene-8-carboxylic acid methyl ester]	–	226 to 228 °C	–	inhibition at 1 µM [3]: 89%
COC(=O)c1cc(C)c2c(c1)S(=O)(=O)Cc1cc(N3CCOCC3)cc(Cl)c1O2 [Example 30, 4-Chloro-6-methyl-2-morpholin-4-yl-10,10-dioxo-10,11-dihydro-5-oxa-10lambda*6*-thia-dibenzo[a,d]cycloheptene-8-carboxylic acid methyl ester]	–	> 320 °C	–	–
CS(=O)(=O)O.Cc1cc(C(=O)O)cc2c1Oc1c(Cl)cc(N3CCNCC3)cc1CS2(=O)=O [Example 19, 4-Chloro-6-methyl-10,10-dioxo-2-piperazin-1-yl-10,11-dihydro-5-oxa-10lambda*6*-thia-dibenzo[a,d]cycloheptene-8-carboxylic acid mesylate]	–	278 to 280 °C	–	–
CCN1CCN(c2cc(Cl)c3c(c2)CS(=O)(=O)c2cc(CO)cc(C)c2O3)CC1 [Example 34, [4-Chloro-2-(4-ethyl-piperazin-1-yl)-6-methyl-10,10-dioxo-10,11-dihydro-5-oxa-10lambda*6*-thia-dibenzo[a,d]cyclohepten-8-yl]-methanol]	–	230 to 232 °C	–	–
Cc1cc(C=O)cc2c1Oc1c(Cl)cc(N3CCNCC3)cc1CS2(=O)=O [Example 35, 4-Chloro-6-methyl-10,10-dioxo-2-piperazin-1-yl-10,11-dihydro-5-oxa-10lambda*6*-thia-dibenzo[a,d]cycloheptene-8-carbaldehyde]	07	–	1400	inhibition at 1 µM [3]: 45%
COC(=O)c1cc(C)c2c(c1)S(=O)(=O)Cc1cc(NC(=O)CCl)cc(Cl)c1O2 [Example 4, 4-Chloro-2-(2-chloro-acetylamino)-6-methyl-10,10-dioxo-10,11-dihydro-5-oxa-10lambda*6*-thia-dibenzo[a,d]cycloheptene-8-carboxylic acid methyl ester]	–	292 to 293 °C	–	–
COC(=O)c1cc(C)c2c(c1)S(=O)(=O)Cc1cc(NC(=O)CO)cc(Cl)c1O2 [Example 5A, 4-Chloro-2-(2-hydroxy-acetylamino)-6-methyl-10,10-dioxo-10,11-dihydro-5-oxa-10lambda*6*-thia-dibenzo[a,d]cycloheptene-8-carboxylic acid methyl ester]	00	–	8600 ± 1300	–
COC(=O)c1cc(C)c2c(c1)S(=O)(=O)Cc1cc(N)cc(Cl)c1N2 [Example 37, 2-Amino-4-chloro-6-methyl-10,10-dioxo-10,11-dihydro-5H-10lambda*6*-thia-5-aza-dibenzo[a,d]-cycloheptene-8-carboxylic acid methylester]	–	278 to 280 °C	–	inhibition at 1 µM [3]: 33%
COC(=O)c1cc(C)c2c(c1)S(=O)(=O)Cc1cc(N(CCO)CCO)cc(Cl)c1O2 [Example 13, 2-[Bis-(2-hydroxy-ethyl)-amino]-4-chloro-6-methyl-10,10-dioxo-10,11-dihydro-5-oxa-10lambda*6*-thia-dibenzo[a,d]cycloheptene-8-carboxylic acid methyl ester]	–	199 to 201 °C	–	–
COC(=O)c1cc(C)c2c(c1)S(=O)(=O)Cc1cc(NC(=O)COC(C)=O)cc(Cl)c1O2 [Example 5B, 2-(2-Acetoxy-acetylamino)-4-chloro-6-methyl-10,10-dioxo-10,11-dihydro-5-oxa-10lambda*6*-thia-dibenzo[a,d]cycloheptene-8-carboxylic acid methyl ester]	00	–	9100 ± 1600	–
COC(=O)c1cc(C)c2c(c1)S(=O)(=O)Cc1cc(N(CCCl)CCCl)cc(Cl)c1O2	–	190 to 191 °C	–	–
COC(=O)c1cc(C)c2c(c1)S(=O)(=O)Cc1cc(N3CCNCC3)cc(Cl)c1O2.CS(=O)(=O)O [Example 17, 4-Chloro-6-methyl-10,10-dioxo-2-piperazin-1-yl-10,11-dihydro-5-oxa-10lambda*6*-thia-dibenzo[a,d]cycloheptene-8-carboxylic acid methyl ester mesylate]	66	279 to 281 °C	–	IC50 ([2]; TNF-α production in PBMC; LPS 1 μg/ml, 4.5 h; ELISA or L929 bioassay; mesylate): 100 nM
COC(=O)c1cc(C)c2c(c1)S(=O)(=O)Cc1cc(NC=O)cc(Cl)c1N2 [Example 38, 4-Chloro-2-formylamino-6-methyl-10,10-dioxo-10,11-dihydro-5H-10-lambda*6*-thia-5-aza-dibenzo[a,d]-cycloheptene-8-carboxylic acid methyl ester]	10 ± 04	–	–	% inhibition of TNF-α release [3]: 45%; IC50 ([2]; TNF-α production in PBMC; LPS 1 μg/ml, 4.5 h; ELISA or L929 bioassay): 1200 ± 1580 nM
COC(=O)c1ccc2c(c1)S(=O)(=O)Cc1ccccc1C2O (stereo not drawn) [Example 40, 5-Hydroxy-10,10-dioxo-10,11-dihydro-5H-10lambda*6*-thia-dibenzo[a,d]cycloheptene-8-carboxylic acid methyl ester]	8	–	> 10000	–
CCOC(=O)c1cc(C)c2c(c1)S(=O)(=O)Cc1cc(NC=O)cc(Cl)c1O2 [Example 10, 4-Chloro-2-formylamino-6-methyl-10,10-dioxo-10,11-dihydro-5-oxa-10lambda*6*-thia-dibenzo[a,d]cycloheptene-8-carboxylic acid ethyl ester]	–	202 to 204 °C	–	–
